The target of this test is T1, human orexin type 2 receptor (Homo sapiens, UniProt O43614).
T1 construct: expressed in transfected cells
T1 sequence (O43614 1-444): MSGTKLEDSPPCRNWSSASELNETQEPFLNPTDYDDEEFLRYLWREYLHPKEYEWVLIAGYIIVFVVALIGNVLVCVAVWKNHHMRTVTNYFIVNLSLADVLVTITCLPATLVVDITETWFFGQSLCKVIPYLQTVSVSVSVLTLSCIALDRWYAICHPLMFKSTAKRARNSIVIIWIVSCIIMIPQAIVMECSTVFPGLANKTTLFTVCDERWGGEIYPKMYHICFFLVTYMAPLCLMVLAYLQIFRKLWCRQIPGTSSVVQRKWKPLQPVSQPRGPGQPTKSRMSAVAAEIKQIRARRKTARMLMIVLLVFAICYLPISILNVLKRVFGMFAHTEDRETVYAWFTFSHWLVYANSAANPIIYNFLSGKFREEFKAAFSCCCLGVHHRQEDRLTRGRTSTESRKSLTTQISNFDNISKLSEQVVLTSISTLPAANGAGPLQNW
As to the kind of experiment: Measurement of orexin type 2 receptor agonist activity (calcium fluorescence, Fluo-4 AM, FDSS). To be noted: test compound 3 μM; CHO cells expressing human OX2 receptor; DMSO = 0%, orexin A (human) = 100%. It counts as cell-based. The text has this: To obtain a cell clone stably expressing human orexin type 2 receptor, human orexin type 2 receptor cDNA was inserted into pcDNA3.1(+) plasmid vector (Invitrogen), and a plasmid DNA for expression of human orexin type 2 receptor (pcDNA3.1(+)/hOX2R) was cloned. The plasmid DNA was introduced into CHO-K1 cell by an electroporation method, and human orexin type 2 receptor expressing clone cells were obtained by limiting dilution method by using G418 drug resistance as a selection marker.
CHO cells forcibly expressing human OX2 receptor were seeded in each well of 384 well black transparent bottom plate (BD Falcon) at 10,000 cells/well, and cultured for one day in a 5% CO2 incubator at 37° C. After removal of the medium in the cell plate, assay buffer A containing a calcium indicator (HBSS (Thermo Fisher Scientific), 20 mM HEPES (Thermo Fisher Scientific), 0.1% BSA (Sigma-Aldrich), 2.5 μg/mL Fluo-4 AM (DOJINDO Chemical), 0.08% Pluronic F127 (DOJINDO Chemical), 1.25 mM probenecid (DOJINDO Chemical)) was added at 30 μL/well. The plate was stood for 30 min in a 5% CO2 incubator at 37° C., and further stood at room temperature for 30 min. A test compound prepared by diluting with assay buffer B (HBSS, 20 mM HEPES, 0.1% BSA) was added at 10 μL/well, and the fluorescence value was measured by FDSSμCELL (Hamamatsu Photonics K.K.) every one sec for 1 min, and thereafter every two sec for […]. The activity (%) of the test compound was calculated assuming that variation in the fluorescence value when DMSO was added instead of the test compound was 0%, and variation in the fluorescence value when orexin A (human) (PEPTIDE INSTITUTE, INC.) was added at the final concentration of 10 nM was 100%.

Regarding `CS(=O)(=O)N[C@H]1CCCN(C(=O)C2(F)CC2c2ccccc2-c2c(F)cccc2F)C1` (stereo partly drawn) [Example 325, N-{(3S)-1-[(1R,2R)-2-(2′,6′-difluoro[1,1′-biphenyl]-2-yl)-1-fluorocyclopropane-1-carbonyl]piperidin-3-yl}methanesulfonamide, or N-{(3S)-1-[(1S,2S)-2-(2′,6′-difluoro[1,1′-biphenyl]-2-yl)-1-fluorocyclopropane-1-carbonyl]piperidin-3-yl}methanesulfonamide], the “OX2R agonist activity (3 μM, %)” value is recorded as 96%.

In the case of `CNS(=O)(=O)NC[C@@H]1[C@H](F)CN1C(=O)C1(COC)CC1c1ccc(F)cc1-c1c(F)cccc1F` (stereo partly drawn) [Example 438, N-({(2R,3R)-3-fluoro-1-[(1R,2S)-1-(methoxymethyl)-2-(2′,5,6′-trifluoro[1,1′-biphenyl]-2-yl)cyclopropane-1-carbonyl]azetidin-2-yl}methyl)-N′-methylsulfuric diamide, or N-({(2R,3R)-3-fluoro-1-[(1S,2R)-1-(methoxymethyl)-2-(2′,5,6′-trifluoro[1,1′-biphenyl]-2-yl)cyclopropane-1-carbonyl]azetidin-2-yl}methyl)-N′-methylsulfuric diamide], the “OX2R agonist activity (3 μM, %)” value is 101%.

As to `CCS(=O)(=O)NC[C@H]1[C@H](F)CN1C(=O)[C@@H]1C[C@@]1(F)c1ccccc1-c1c(F)cccc1F` [Example 417, N-({(2S,3R)-1-[(1S,2S)-2-(2′,6′-difluoro[1,1′-biphenyl]-2-yl)-2-fluorocyclopropane-1-carbonyl]-3-fluoroazetidin-2-yl}methyl)ethanesulfonamide], the “OX2R agonist activity (3 μM, %)” value was 98%.

In the case of `CS(=O)(=O)NCC1CCN(C(=O)[C@@H]2C[C@@]2(F)c2ccccc2-c2c(F)cccc2F)C1` (stereo partly drawn) [Example 450, N-({(3R)-1-[(1S,2S)-2-(2′,6′-difluoro[1,1′-biphenyl]-2-yl)-2-fluorocyclopropane-1-carbonyl]pyrrolidin-3-yl}methyl)methanesulfonamide, or N-({(3S)-1-[(1S,2S)-2-(2′,6′-difluoro[1,1′-biphenyl]-2-yl)-2-fluorocyclopropane-1-carbonyl]pyrrolidin-3-yl}methyl)methanesulfonamide], the “OX2R agonist activity (3 μM, %)” value is given as 96%.

Turning to `CS(=O)(=O)NC1CCN(C(=O)C2CC2c2c(F)cccc2-c2ccccc2F)C1` (racemic) [Example 188, a mixture of rac-N-{(3R)-1-[(1R,2R)-2-(2′,3-difluoro[1,1′-biphenyl]-2-yl)cyclopropane-1-carbonyl]pyrrolidin-3-yl}methanesulfonamide and rac-N-{(3S)-1-[(1R,2R)-2-(2′,3-difluoro[1,1′-biphenyl]-2-yl)cyclopropane-1-carbonyl]pyrrolidin-3-yl}methanesulfonamide], the “OX2R agonist activity (3 μM, %)” value amounted to 86%.

For `COC[C@H](NS(C)(=O)=O)C1CCN1C(=O)[C@@H]1C[C@@]1(F)c1ccccc1-c1c(F)cccc1F` (stereo partly drawn) [Example 419, N-[(1R)-1-{(2R)-1-[(1S,2S)-2-(2′,6′-difluoro[1,1′-biphenyl]-2-yl)-2-fluorocyclopropane-1-carbonyl]azetidin-2-yl}-2-methoxyethyl]methanesulfonamide, or N-[(1R)-1-{(2S)-1-[(1S,2S)-2-(2′,6′-difluoro[1,1′-biphenyl]-2-yl)-2-fluorocyclopropane-1-carbonyl]azetidin-2-yl}-2-methoxyethyl]methanesulfonamide], the “OX2R agonist activity (3 μM, %)” value was 104%.

With `CS(=O)(=O)N[C@H]1CCN(C(=O)C2(F)CC2c2ccccc2-c2c(F)cccc2F)C1` (stereo partly drawn) [Example 324, N-{(3S)-1-[(1R,2R)-2-(2′,6′-difluoro[1,1′-biphenyl]-2-yl)-1-fluorocyclopropane-1-carbonyl]pyrrolidin-3-yl}methanesulfonamide, or N-{(3S)-1-[(1S,2S)-2-(2′,6′-difluoro[1,1′-biphenyl]-2-yl)-1-fluorocyclopropane-1-carbonyl]pyrrolidin-3-yl}methanesulfonamide], the “OX2R agonist activity (3 μM, %)” value was 96%.

Consider `C[C@H](NS(=O)(=O)C1(C)CC1)[C@@H]1CCN1C(=O)[C@@H]1C[C@@]1(F)c1ccccc1-c1c(F)cccc1F` [Example 388, N-[(1S)-1-{(2S)-1-[(1S,2S)-2-(2′,6′-difluoro[1,1′-biphenyl]-2-yl)-2-fluorocyclopropane-1-carbonyl]azetidin-2-yl}ethyl]-1-methylcyclopropane-1-sulfonamide], for which the “OX2R agonist activity (3 μM, %)” value was determined as 98%.

Turning to “N-({(2S,3R)-1-[(1R,2R)-2-fluoro-2-(2′- fluoro[1,1′-biphenyl]-2- yl)cyclopropane-1-carbonyl]-3- methylazetidin-2- yl}methyl)ethanesulfonamide, or N- ({(2S,3R)-1-[(1S,2S)-2-fluoro-2-(2′- fluoro[1,1′-biphenyl]-2- yl)cyclopropane-1-carbonyl]-3- methylazetidin-2- yl}methyl)ethanesulfonamide [Example 439]”, the “OX2R agonist activity (3 μM, %)” value worked out at 107%.

For the compound `CS(=O)(=O)NC1CCCN(C(=O)C2CC2c2c(F)cccc2-c2ccccc2)CC1` (racemic) [Example 95, a mixture of rac-N-{(4R)-1-[(1R,2R)-2-(3-fluoro[1,1′-biphenyl]-2-yl)cyclopropane-1-carbonyl]azepan-4-yl}methanesulfonamide and rac-N-{(4S)-1-[(1R,2R)-2-(3-fluoro[1,1′-biphenyl]-2-yl)cyclopropane-1-carbonyl]azepan-4-yl}methanesulfonamide], the “OX2R agonist activity (3 μM, %)” value was 61%.

As to `CS(=O)(=O)NC1CCN(C(=O)C2CC2c2ccc(F)cc2-c2ccccc2Cl)C1` (racemic) [Example 134, a mixture of rac-N-{(3R)-1-[(1R,2R)-2-(2′-chloro-5-fluoro[1,1′-biphenyl]-2-yl)cyclopropane-1-carbonyl]pyrrolidin-3-yl}methanesulfonamide and rac-N-{(3S)-1-[(1R,2R)-2-(2′-chloro-5-fluoro[1,1′-biphenyl]-2-yl)cyclopropane-1-carbonyl]pyrrolidin-3-yl}methanesulfonamide], the “OX2R agonist activity (3 μM, %)” value is listed as 74%.

With `Cc1cc(-c2c(F)cccc2F)c(C2CC2C(=O)N2CCCC(NS(C)(=O)=O)CC2)cn1` (racemic) [Example 266, a mixture of rac-N-[(4R)-1-{(1R,2R)-2-[4-(2,6-difluorophenyl)-6-methylpyridin-3-yl]cyclopropane-1-carbonyl}azepan-4-yl]methanesulfonamide and rac-N-[(4S)-1-{(1R,2R)-2-[4-(2,6-difluorophenyl)-6-methylpyridin-3-yl]cyclopropane-1-carbonyl}azepan-4-yl]methanesulfonamide], the “OX2R agonist activity (3 μM, %)” value worked out at 87%.

As for `CS(=O)(=O)N[C@@H]1CN(C(=O)[C@@H]2C[C@H]2c2ccccc2-c2c(F)cccc2F)CC[C@@H]1O` [Example 270, N-{(3R,4S)-1-[(1R,2R)-2-(2′,6′-difluoro[1,1′-biphenyl]-2-yl)cyclopropane-1-carbonyl]-4-hydroxypiperidin-3-yl}methanesulfonamide], the “OX2R agonist activity (3 μM, %)” value was found to be 64%.

Take `CS(=O)(=O)NC[C@@H]1CCN1C(=O)C1(CO)CC1c1ccc(F)cc1-c1c(F)cccc1F` (stereo partly drawn) [Example 434, N-({(2S)-1-[(1R,2S)-1-(hydroxymethyl)-2-(2′,5,6′-trifluoro[1,1′-biphenyl]-2-yl)cyclopropane-1-carbonyl]azetidin-2-yl}methyl)methanesulfonamide, or N-({(2S)-1-[(1S,2R)-1-(hydroxymethyl)-2-(2′,5,6′-trifluoro[1,1′-biphenyl]-2-yl)cyclopropane-1-carbonyl]azetidin-2-yl}methyl)methanesulfonamide]: the “OX2R agonist activity (3 μM, %)” value was 96%.

In the case of `CS(=O)(=O)N[C@H]1CCN(C(=O)C2CC2c2c(-c3c(F)cccc3F)csc2F)C1` (stereo partly drawn) [Example 368, N-[(3S)-1-{(1R,2R)-2-[4-(2,6-difluorophenyl)-2-fluorothiophen-3-yl]cyclopropane-1-carbonyl}pyrrolidin-3-yl]methanesulfonamide, or N-[(3S)-1-{(1S,2S)-2-[4-(2,6-difluorophenyl)-2-fluorothiophen-3-yl]cyclopropane-1-carbonyl}pyrrolidin-3-yl]methanesulfonamide], the “OX2R agonist activity (3 μM, %)” value was 97%.

The values above are taken from patent publication US20250250230A1, “HETEROCYCLIC COMPOUND” (TAKEDA PHARMACEUTICAL COMPANY LIMITED, priority 2022, published 2025).
